Measurements published in US7326407B2, “Amine, amide, sulphonamide and carbamate derivatives of benzalmalonic salts and photoprotective cosmetic compositions comprised thereof” (L'Oreal, priority 2003, dated 2008).
Structures can show the parent of a compound that is named as a salt.

Assay: UV absorption spectrum in water
Assay type: physicochemical
Details: for UV E1% / UV εmax: at λmax

Compound	UV λmax	UV E1%	UV εmax
Nc1ccc(C=C(C(=O)O)C(=O)O)cc1 [Example 1, dipiperidinium salt of 2-(4-aminobenzylidene)malonic acid]	305 nm	446	16800 L/mol/cm
Nc1ccc(C=C(C(=O)O)C(=O)O)cc1 [Example 2, disodium salt of 2-(4-aminobenzylidene)malonic acid]	305 nm	670	16800 L/mol/cm

Other lines, results leading:

UV λmax	UV E1%	UV εmax	Compound
306 nm	496	14000 L/mol/cm	Nc1ccc(C=C(C(=O)O)C(=O)O)cc1 [Example 3, dipotassium salt of 2-(4-aminobenzylidene)malonic acid]
292 nm	498	16200 L/mol/cm	CC(=O)Nc1ccc(C=C(C(=O)O)C(=O)O)cc1 [Example 4, dipotassium salt of 2-(4-acetamidobenzylidene)malonic acid]
292 nm	422	14000 L/mol/cm	dipotassium salt of 2-(4-laurylamidobenzylidene)malonic acid [Example 5]
